How the values were obtained:
[1] = target: T1, KB cell folate-binding protein (Homo sapiens, UniProt P15328); assay: Competitive binding assay using [^3 H]folic acid on KB cells; conditions: equimolar amount (100 pmoles each), 30 min, 4° C.
T1 construct: endogenous in cells; host or cells: KB cells
Experimental: (§1) Cell Culture. KB cells, a human nasopharyngeal epidermal carcinoma cell line that greatly overexpresses the folate binding protein, were cultured continuously as a monolayer at 37° C. in a humidified atmosphere containing 5% CO2 in folate-deficient modified Eagle's medium (FDMEM) (a folate-free modified Eagle's medium supplemented with 10% (v/v) heat-inactivated fetal calf serum as the only source of folate) containing penicillin (50 units/mL), streptomycin (50 μg/mL), and 2 mM L-glutamine. The final folate concentration in the complete FDMEM is the physiological range (~2 nM). 48 h prior to each experiment, the cells were transferred to 35 mm culture dishes at 5×10^5 cells per dish and grown to ~80% confluent.
The affinity of the DF-folate(α) and DF-folate(γ) conjugates for the KB cell folate-binding protein was evaluated in a competitive binding assay using [^3 H]folic acid as the receptor ligand. Briefly, 100 pmoles of [^3 H]folic acid and 100 pmoles of either DF-folate(α) or DF-folate(γ) dissolved in phosphate-buffered saline (PBS) were added to KB cells grown ~80% confluence in 1 mL FDMEM in 35 mm culture dishes. Following a 30 min incubation at 4° C., the cells were washed 3 times with cold PBS. Cell-associated [^3 H] folic acid was then determined by liquid scintillation counting, and the cellular protein content was evaluated by the BCA protein assay.

physchem = assay type: physicochemical; conditions: water, pKa
Experimental: The crude product contained a mixture of folate-deferoxamine conjugates, wherein the folate is linked to DF via its α-carboxyl or γ-carboxyl group as well as unreacted folic acid. The two isomers of DF-folate were isolated and purified on a weak anion-exchange column. Briefly, the product mixture was loaded onto a 1.5 cm×15 cm […] column pre-equilibrated in 10 mM NH4 CO3 buffer (pH 7.9). The column was washed with 50 mL 10 mM NH4 HCO3 and then eluted with a 500 mL gradient of 80-180 mM NH4 HCO3 followed by 150 mL 500 mM NH4 HCO3. Three folate-containing peaks were obtained as detected by UV absorbance at 363 nm. Each peak was collected, lyophilized, and redissolved in deionized water. The purity of each component was confirmed by reverse-phase high pressure liquid chromatography (HPLC) with a 10 mm×250 mm Licrosorb RP-18 column (Altech, Deerfield, Ill.), and evaluation of the conjugates' molecular weights was determined by fast-atom bombardment mass spectroscopy (FAB-MS). The characteristic pKa values of the two DF-folate isomers were obtained by titration on a pH/ion analyzer (Corning, Corning, N.Y.). […] Since the two isoforms of DF-folate conjugate retain either a free γ-carboxyl or free α-carboxyl, they can be distinguished from each other and from unreacted folic acid by their characteristic pKa values, which were determined by titration.

human KB cells tumors = assay type: in vivo, athymic mice; conditions: 29.6 mg tumor; ~45 hours post-injection
Experimental: To test the tumor-cell-selective uptake of metal-labeled radiopharmaceuticals in vivo, ~180 μCi of ^67 Ga-deferoxamine-folate conjugate (See FIG. 3) was administered to two tumor-bearing athymic mice. Tumors were generated in athymic mice by subcutaneous injecting human KB cells into the dorsal-lateral region of the mice according to procedures familiar to those of ordinary skill in the art. After establishment of tumors in the mice, ~180 μCi of ^67 Ga-deferoxamine-folate conjugate was administered intravenously. Approximately 45 hours post-injection, gamma images were obtained and the tissue distribution of ^67 Ga quantitated.
To test the viability of the FBP-receptor as a pathway for achieving tumor-cell-selective uptake of metal-labeled radiopharmaceuticals in vivo, ~180 μCi of ^67 Ga-deferoxamine-folate conjugate was administered intravenously to two tumor-bearing athymic mice via the femoral vein nine days after subcutaneous injection of 4×10^6 human KB cells. At approximately 45 hours post-injection, gamma images were obtained, the animals were sacrificed and dissected, and the tissue distribution of tracer was quantified by gamma counting (after storage of the weighted tissue samples for decay to a suitable ^67 Ga count rate). […] The tumor to blood ratio was 1500 and 1185 and the tumor to muscle ratio was 170 and 288 for each respective mouse.

KB cells [2] = assay: Uptake of ^67 Ga-DF-folate complex by cultured KB cells; assay type: cell-based, human; conditions: for saturating level of cellular uptake, of the total radioactivity added: concentration dependence
Experimental: as §1
Because folate and its conjugates bind to cell surface receptors at 4° C., but are capable of endocytosis only at higher temperatures, it is possible to separately evaluate the kinetics of binding the internalization of folate by measuring the rates of folate conjugate uptake at the two temperatures. […] By the end of the 30 min incubation, binding approached to saturation with ~18% of the initial radioactivity found associated with a cell surface.
Incubation at 37° C., a temperature which permits both binding and endocytosis, yielded similar kinetic results, however, maximal uptake reached 32% of the total conjugate added. Presumably, the difference in magnitude of the two cellular uptake curves reflects the ability of the folate receptor to internalize the conjugate and then recycle to the cell surface in its unoccupied form. […] This latter result is consistent with the inability of the α-conjugate to compete with free folate for the cell surface receptor.
To verify the involvement of a cell surface folate receptor in mediating the uptake of ^67 Ga-DF-folate(γ), binding and internalization of the complex were evaluated as a function of the complex's concentration. Cellular uptake of ^67 Ga-DF-folate(γ) was concentration dependent at both 4° C. and 37° C., saturating at levels of 20% and 35% of the total radioactivity added, respectively.

[3] = system: Subcutaneous KB Cell Tumors
[4] = system: Rat pheochromocytoma (PC-12) cells; assay: Rat pheochromocytoma cell uptake of biotin conjugated proteins, fluorescent microscope; assay type: cell-based; conditions: 37° C., 5, 15 and 33 minutes
Experimental: Rat pheochromocytoma (PC-12) cells were obtained from America Type Culture Collection and were grown (37° C., 5% CO2 in humidified air) attached to plastic flasks for 2 to 3 weeks until confluent in a medium of 85% RMPI 1640, 10% v/v heat inactivated horse serum, and 5% fetal calf serum containing 1% streptomycin-penicillin.
Biotin and fluorescein labeled insulin was prepared.
The rat PC12 cells were grown in modified RMPI 1640 medium as a monolayer on the bottom of a culture flask. Before removing the cells, the monolayer was washed with a 20 ml portion of fresh Locke's solution. The cells were then displaced into 20 ml of the Locke's solution by gentle agitation with a stream Locke's solution. […] The tubes were allowed to incubate at 37° C. At intervals of 5, 15 and 33 minutes, 0.5 ml of each cell suspension was removed and pelleted at 10,000×g for 10 seconds. The cell pellet was washed and repelleted twice in 1 ml Locke's solution and then fixed by addition of 200 l of a 2% formalin solution in phosphate buffered saline. Thirteen microliters of the fixed cell suspension was then added to a microscope slide and viewed with the fluorescent microscope to detect internalized proteins.

human HeLa cells = assay: Uptake of ^125 I-labeled folate-labeled RNase by HeLa cells; assay type: cell-based
[5] = system: KB cells (a human nasopharyngeal cell line); assay: Uptake of ^125 I-labeled folate-labeled protein by KB cells; assay type: cell-based
[6] = 17 hours after intraperitoneal injection
KB cells [7] = assay: Visualization of ribonuclease endocytosis by KB cells using a confocal microscope; assay type: cell-based, human; conditions: 60 minute incubation
Experimental: RNase labeled only with fluoroscein was used as a control. Following extensive dialysis against growth medium, the control and folate-labeled RNase samples were added to separate cultures of KB cells. After 60 minute incubation, the cells were thoroughly washed and examined for uptake. […] Furthermore, using the confocal's capability of focusing on a single horizontal plane in each cultured cell, it was readily evident that vesicles filled with the fluorescent-labeled, folate-bound ribonuclease were forming on all regions of the cell surface, pinching off via endocytosis into the interior, and entering the cytoplasm. The vesicles, measuring […] across, were easily large enough to accommodate large biomolecules such as proteins and DNA plasmids.

[8] = system: white blood cells in whole human blood; conditions: 37° C., 2 hours
Experimental: Fluorescein-labeled RNase was either conjugated to folate or left unmodified (control) following the same general procedure set forth in Example 19. The folate-conjugated and control samples were then added to freshly drawn whole human blood, incubated at 37° C. for 2 hours and then washed thoroughly and examined under the fluorescence microscope.

BHK cells = assay: Ribonuclease-riboflavin uptake by BHK cells; assay type: cell-based; conditions: 10 μg/ml, various times (FIG. 4)

T1 sequence (P15328 25-257): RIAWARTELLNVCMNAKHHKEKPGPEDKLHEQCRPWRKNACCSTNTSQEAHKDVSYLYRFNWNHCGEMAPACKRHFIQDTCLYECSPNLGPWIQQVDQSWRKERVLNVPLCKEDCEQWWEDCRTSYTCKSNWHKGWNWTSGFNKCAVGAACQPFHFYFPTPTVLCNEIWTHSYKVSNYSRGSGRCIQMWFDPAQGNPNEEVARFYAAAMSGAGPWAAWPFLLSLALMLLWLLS

Molecule: CC(=O)N(O)CCCCCNC(=O)CCC(=O)N(O)CCCCCNC(=O)CCC(=O)N(O)CCCCCNC(=O)[C@H](CCC(=O)O)NC(=O)c1ccc(NCc2cnc3nc(N)[nH]c(=O)c3n2)cc1 [DF-folate(α)]
- decrease in bound [^3 H]folic acid [1]: no ability to compete
- pKa (physchem): 2.5

Molecule: CC(=O)N(O)CCCCCNC(=O)CCC(=O)N(O)CCCCCNC(=O)CCC(=O)N(O)CCCCCNC(=O)CC[C@H](NC(=O)c1ccc(NCc2cnc3nc(N)[nH]c(=O)c3n2)cc1)C(=O)O [DF-folate(γ)]
- decrease in bound [^3 H]folic acid [1]: 50%
- pKa (physchem): 4.5

Molecule: CC(=O)N([O-])CCCCCNC(=O)CCC(=O)N([O-])CCCCCNC(=O)CCC(=O)N([O-])CCCCCNC(=O)CCC(NC(=O)c1ccc(NCc2cnc3nc(N)[nH]c(=O)c3n2)cc1)C(=O)O.[67Ga+3] (stereo not drawn) [^67 Ga-DF-Folate]
- detection of tumor by gamma scintigraphy (human KB cells tumors): readily detected by gamma scintigraphy
- time to half maximal binding (KB cells [2]; 4° C.): ~ 3 min
- saturating level of cellular uptake, of the total radioactivity added (KB cells [2]; 4° C.): 20%
- initial radioactivity associated with cell surface (KB cells [2]; 4° C., end of 30 min incubation): ~ 18%
- maximal uptake, of the total conjugate added (KB cells [2]; 37° C.): 32%
- saturating level of cellular uptake, of the total radioactivity added (KB cells [2]; 37° C.): 35%
- initial cellular uptake retained (KB cells [2]; 100-fold molar excess of free folate): 0.5%
- decrease in uptake (KB cells [2]; equimolar unlabeled folic acid): 50%
- imaging of tumors in vivo with a gamma camera ([3]; 8 mm tumors): 8 mm tumors were easily imaged in vivo
- Tumor-to-Non-target Ratio: Tumor/blood ([3]; mouse, in vivo, iv, 270 min): 48 ± 5
- Tumor-to-Non-target Ratio: Tumor/kidney ([3]; mouse, in vivo, iv, 270 min): 1.4 ± 0.5
- Tumor-to-Non-target Ratio: Tumor/liver ([3]; mouse, in vivo, iv, 270 min): 5.1 ± 0.5
- Tumor-to-Non-target Ratio: Tumor/muscle ([3]; mouse, in vivo, iv, 270 min): 82 ± 16
- Percentage of Injected Dose per Gram of Tissue: Blood ([3]; mouse, in vivo, iv, 4.5 h): 0.046 ± 0.009 % of injected dose per gram
- Percentage of Injected Dose per Gram of Tissue: Heart ([3]; mouse, in vivo, iv, 4.5 h): 0.025 ± 0.005 % of injected dose per gram
- Percentage of Injected Dose per Gram of Tissue: Kidney ([3]; mouse, in vivo, iv, 4.5 h): 1.79 ± 0.82 % of injected dose per gram
- Percentage of Injected Dose per Gram of Tissue: Liver ([3]; mouse, in vivo, iv, 4.5 h): 0.43 ± 0.03 % of injected dose per gram
- Percentage of Injected Dose per Gram of Tissue: Lungs ([3]; mouse, in vivo, iv, 4.5 h): 0.052 ± 0.010 % of injected dose per gram
- Percentage of Injected Dose per Gram of Tissue: Muscle ([3]; mouse, in vivo, iv, 4.5 h): 0.028 ± 0.005 % of injected dose per gram
- Percentage of Injected Dose per Gram of Tissue: Tumor ([3]; mouse, in vivo, iv, 4.5 h): 2.22 ± 0.36 % of injected dose per gram

Molecule: fluorescein labeled insulin: non-biotinylated fluorescein labeled insulin, control
- cellular internalization (fluorescent microscope) [4]: No evidence of internalization

B1: RNase-Folate: ^125 I bovine ribonuclease with 12-14 covalently bound folates per protein molecule (conjugate, UniProt P61823 27-150, looked up)
Ribonuclease pancreatic: KETAAAKFERQHMDSSTSAASSSNYCNQMMKSRNLTKDRCKPVNTFVHESLADVQAVCSQKNVACKNGQTNCYQSYSTMSITDCRETGSSKYPNCAYKTTQANKHIIVACEGNPYVPVHFDASV
modifications: 125I label; 12-14 folates
- uptake by HeLa cells (human HeLa cells): corresponding results
- reduction of uptake by competitive inhibition ([5]; 100-fold molar excess of unligated folate): 7 fold
- molecules per cell internalized ([5]; KB cells, after 30 minutes): 10^7 molecules per cell
- brain tissue uptake (delivery across the blood/brain barrier) [6]: brain tissue's preferential uptake of the folate-labeled protein

B2: folate-labeled RNase: Bovine ribonuclease labeled with fluorescein isothiocyanate and further labeled with folate (conjugate, UniProt P61823 27-150, looked up)
Ribonuclease pancreatic: KETAAAKFERQHMDSSTSAASSSNYCNQMMKSRNLTKDRCKPVNTFVHESLADVQAVCSQKNVACKNGQTNCYQSYSTMSITDCRETGSSKYPNCAYKTTQANKHIIVACEGNPYVPVHFDASV
modifications: fluorescein and folate conjugated
- internal fluorescence (confocal microscope) (KB cells [7]): Only the folate-labeled samples displayed any internal fluorescence
- cell fluorescence (fluorescence microscope) [8]: found to fluoresce

B3: RNase A-Rf (6): ^125 I ribonuclease derivatized with 6 riboflavins per protein (conjugate, UniProt P61823 27-150, looked up)
Ribonuclease pancreatic: KETAAAKFERQHMDSSTSAASSSNYCNQMMKSRNLTKDRCKPVNTFVHESLADVQAVCSQKNVACKNGQTNCYQSYSTMSITDCRETGSSKYPNCAYKTTQANKHIIVACEGNPYVPVHFDASV
modifications: 125I label; 6 riboflavins
notes: ^125 I ribonuclease derivatized with 6 riboflavins per protein
- uptake of ^125 I-ribonuclease by BHK cells (BHK cells): highest rate of uptake

B4: SBTI: soybean trypsin inhibitor, folate-ligated as in Example 17 (conjugate, UniProt P01070 25-205, looked up)
Trypsin inhibitor A: DFVLDNEGNPLENGGTYYILSDITAFGGIRAAPTGNERCPLTVVQSRNELDKGIGTIISSPYRIRFIAEGHPLSLKFDSFAVIMLCVGIPTEWSVVEDLPEGPAVKIGENKDAMDGWFRLERVSDDEFNNYKLVFCPQQAEDDKCGDIGISIDHDDGTRRLVVSKNKPLVVQFQKLDKESL
modifications: folate conjugated
- uptake of SBTI by KB cells ([5]; procedure of Example 17): Folate ligation was again demonstrated to be essential for uptake

Source: patent US5688488A, “Composition and method for tumor imaging” (priority 1995, dated 1997)
